Read-outs that look alike come from different tables or passages of the source.
Assays:
[1] = TRM-201-PK-102 safety: treatment-emergent adverse events; assay type: in vivo, human
From the text: The timing and frequency of all safety assessments was listed in the schedule of events (Table 19). Safety and tolerability included monitoring and recording of AEs, clinical laboratory assessments (hematology, serum chemistry, and urinalysis), vital sign measurements, 12-lead ECG assessments, and physical examination findings. […] If clinical significance was noted, the result and reason for significance were documented. Any abnormal laboratory test results (hematology, clinical chemistry, or urinalysis) or other safety assessments (e.g., ECGs, vital sign measurements), including those that worsen from baseline, felt to be clinically significant in the medical and scientific judgment of the investigator were to be recorded as AEs or SAEs.
The investigator was responsible for reporting all AEs that were observed or reported during the study, regardless of their relationship to study drug or their clinical significance. If there was any doubt as to whether a clinical observation was an AE, the event was reported. An AE was defined as any untoward medical occurrence in a subject enrolled into this study regardless of its causal relationship to study drug. Subjects were instructed to contact the investigator at any time after enrollment if any symptoms developed. A treatment-emergent AE (TEAE) was defined as any event not present before exposure to study drug or any event already present that worsens in either intensity or frequency after exposure to study drug.
All safety data were summarized. The incidence of adverse events was presented by the MedDRA system organ class and preferred term, relationship to the test article, and severity. Descriptive statistics of clinical laboratory results and vital signs were presented, as well as summaries of changes from baseline (from the Check-in visit(s)) and of clinically notable values. All AE data were presented in a data listing TEAEs were summarized overall, as well as by severity and relationship to study drug. Serious AEs and AEs leading to discontinuation of study drug were also presented in the data listings and summarized. Actual values and changes from Baseline for clinical laboratory test results, vital sign measurements, and 12-lead ECG results were summarized at each time point using descriptive statistics (number of subjects, mean, SD, median, minimum, and maximum).

[2] = 101 and 102 PK studies combined (fasted); assay type: in vivo; settings: human, plasma, oral; for half-life: read-out: median t1/2 (converted)
From the text: The primary analysis model for data from this trial included data from this trial and that from the 25-mg dose from TRM-201-PK-101 (fasted results only), which were combined via mixed model repeated measures analysis (MMRM) in order to maximize the precision of the estimates. An MMRM analysis on natural log scale was simulated for the 25-mg dose (N=50) data using the between-subject SD of 0.31 from TRM-201-PK-101 and for the estimated 25-mg and 20-mg data that N=20 subjects were expected to yield in this study. The purpose of this simulation was to estimate the SD for the least squares natural log scale mean for the 20-mg dose. […] The subject effect data expected for this study was simulated from the back-calculated variance of the between-subject mean effect (Var (between-subject-mean)=SDbetween^2−SDwithin^2). For the maximum between- and within-SB's 0.31 and 0.12, 1000 simulations yielded an effective SD of 0.21 for the least squares mean of 20 mg, which was used for the following power calculations.
The arithmetic mean AUC0-∞ for 12.5 mg of TRM-201 is 2010 ng·hr/mL. The geometric mean AUC0-∞ for 12.5 mg of TRM-201 is 1880 ng·hr/mL. The arithmetic mean AUC0-∞ for 17.5 mg of TRM-201 is 3290 ng·hr/mL. The geometric mean AUC0-∞ for 17.5 mg of TRM-201 is 3110 ng·hr/mL. The arithmetic mean AUC0-∞ for 20 mg of TRM-201 is 3750 ng·hr/mL. The geometric mean AUC0-∞ for 20 mg of TRM-201 is 3550 ng·hr/mL. The arithmetic mean AUC0-∞ for 25 mg of TRM-201 is 4810 ng·hr/mL. The geometric mean AUC0-∞ for 25 mg of TRM-201 is 4590 ng·hr/mL.
The median time at which the Cmax is observed (Tmax) for 12.5 mg of TRM-201 is 2.00 hours. The median Tmax for 17.5 mg of TRM-201 is 2.00 hours. The Tmax for 20 mg of TRM-201 is 2.00 hours.

[3] = TRM-201-PK-101 safety: treatment-emergent adverse events; assay type: in vivo, human; settings: 25 mg, 101 study
From the text: Safety and tolerability will include monitoring and recording of AEs, clinical laboratory assessments (hematology, serum chemistry, and urinalysis), vital sign measurements, 12-lead ECG assessments, and physical examination findings.
A treatment-emergent AE (TEAE) is defined as any event not present before exposure to study drug or any event already present that worsens in either intensity or frequency after exposure to study drug.
All safety data will be summarized for the PILOT portion, MAIN study, and FOOD-EFFECT sub study combined. Subjects who received 2 single doses will be counted once with all of their safety data combined. The incidence of adverse events will be presented by the MedDRA system organ class and preferred term, relationship to the test article, and severity. Descriptive statistics of clinical laboratory results and vital signs will be presented, as well as summaries of changes from baseline (from the Check-in visit(s)) and of clinically notable values.
All AE data will be presented in a data listing by study part and within the FOOD-EFFECT sub study by treatment sequence. TEAEs will be summarized overall, as well as by severity and relationship to study drug. Serious AEs and AEs leading to discontinuation of study drug will also be presented in the data listings and summarized.

Which “TEAE in preferred term” value ([1]; 12.5 mg) does the source give for `CS(=O)(=O)c1ccc(C2=C(c3ccccc3)C(=O)OC2)cc1` [TRM-201, 4-[4-(methylsulfonyl)phenyl]-3-phenyl-2(5H)-furanone] here?
Its value is “constipation”.

And the “subjects who exhibited a TEAE” value ([1]; 12.5 mg)?
The value was “One”.

And the “TEAE in preferred term” value ([1]; 25 mg)?
The value was “ear discomfort and headache”.

What about the “subjects who exhibited a TEAE” value ([1]; 25 mg) of the same compound?
The value was “two”.

What about the “severity of all reported TEAE” value ([1]; 102 PK study) of the same compound?
Its value is “mild”.

And the “related TEAE, serious TEAE, TEAE leading to study discontinuation, or severe TEAE” value ([1]; 102 PK study, all doses)?
Its value is “No subjects”.

And the “subjects who exhibited a TEAE, total” value ([1]; 102 PK study, all doses)?
Its value is “three”.

What about the “incidence of TEAE leading to study discontinuation” value ([1]; at any dosage) of the same compound?
Its value is “no incidence”.

What about the “incidence of related TEAE” value ([1]; at any dosage) of the same compound?
The value was “no incidence”.

What about the “incidence of serious TEAE” value ([1]; at any dosage) of the same compound?
The value was “no incidence”.

What about the AUC(0-inf) ([2]; 12.5 mg, 101 and 102 studies (FIG. 47), read-out: arithmetic mean AUC0-∞) of the same compound?
The AUC(0-inf) was 2010 ng·h/mL.

What about the Cmax ([2]; 12.5 mg, 101 and 102 studies (FIG. 47), read-out: arithmetic mean Cmax) of the same compound?
The Cmax was 151 ng/mL.

And the AUC(0-inf) ([2]; 12.5 mg, 101 and 102 studies (FIG. 47), read-out: geometric mean AUC0-∞)?
Its AUC(0-inf) is 1880 ng·h/mL.

What about the Cmax ([2]; 12.5 mg, 101 and 102 studies (FIG. 47), read-out: geometric mean Cmax) of the same compound?
Its Cmax is 144 ng/mL.

What about the half-life ([2]; 12.5 mg) of the same compound?
Its half-life is 12 h.

What about the AUC(0-inf) ([2]; 17.5 mg, 101 and 102 studies (FIG. 47), read-out: arithmetic mean AUC0-∞) of the same compound?
Its AUC(0-inf) is 3290 ng·h/mL.

What about the Cmax ([2]; 17.5 mg, 101 and 102 studies (FIG. 47), read-out: arithmetic mean Cmax) of the same compound?
Its Cmax is 236 ng/mL.

What about the AUC(0-inf) ([2]; 17.5 mg, 101 and 102 studies (FIG. 47), read-out: geometric mean AUC0-∞) of the same compound?
The AUC(0-inf) was 3110 ng·h/mL.

What about the Cmax ([2]; 17.5 mg, 101 and 102 studies (FIG. 47), read-out: geometric mean Cmax) of the same compound?
Its Cmax is 224 ng/mL.

And the Tmax ([2]; 17.5 mg, read-out: median Tmax)?
The Tmax was 2 h.

What about the half-life ([2]; 17.5 mg) of the same compound?
Its half-life is 11.7 h.

What about the AUC(0-inf) ([2]; 20 mg, 101 and 102 studies (FIG. 47), read-out: arithmetic mean AUC0-∞) of the same compound?
Its AUC(0-inf) is 3750 ng·h/mL.

And the Cmax ([2]; 20 mg, 101 and 102 studies (FIG. 47), read-out: arithmetic mean Cmax)?
Its Cmax is 277 ng/mL.

And the AUC(0-inf) ([2]; 20 mg, 101 and 102 studies (FIG. 47), read-out: geometric mean AUC0-∞)?
Its AUC(0-inf) is 3550 ng·h/mL.

And the Cmax ([2]; 20 mg, 101 and 102 studies (FIG. 47), read-out: geometric mean Cmax)?
The Cmax was 259 ng/mL.

And the Tmax ([2]; 20 mg, read-out: Tmax)?
Its Tmax is 2 h.

And the half-life ([2]; 20 mg)?
The half-life was 12.2 h.

What about the AUC(0-inf) ([2]; 25 mg, 101 and 102 studies combined (FIG. 47), read-out: arithmetic mean AUC0-∞) of the same compound?
Its AUC(0-inf) is 4810 ng·h/mL.

What about the Cmax ([2]; 25 mg, 101 and 102 studies combined (FIG. 47), read-out: arithmetic mean Cmax) of the same compound?
Its Cmax is 336 ng/mL.

What about the AUC(0-inf) ([2]; 25 mg, 101 and 102 studies combined (FIG. 47), read-out: geometric mean AUC0-∞) of the same compound?
The AUC(0-inf) was 4590 ng·h/mL.

And the Cmax ([2]; 25 mg, 101 and 102 studies combined (FIG. 47), read-out: geometric mean Cmax)?
Its Cmax is 325 ng/mL.

And the Tmax ([2]; 25 mg, 101 and 102 studies combined, read-out: Tmax)?
Its Tmax is 2.5 h.

And the half-life ([2]; 25 mg, 101 and 102 studies combined)?
Its half-life is 11.6 h.

What about the “serious TEAE or TEAE leading to discontinuation of the study” value [3] of the same compound?
The value was “No subjects”.

And the “subjects observed with TEAEs” value [3]?
Its value is “four”.

And the “subjects observed with TEAEs, share of the cohort” value [3]?
The value was 7.5%.

And the “subjects with TEAE related to treatment” value [3]?
The value was 2 subjects.

What about the “subjects with TEAE related to treatment, share of the cohort” value [3] of the same compound?
The value was 3.8%.

From patent US10945992B1, “Dosage forms of rofecoxib and related methods” (Tremeau Pharmaceuticals, Inc., priority 2019, dated 2021)
